Measurements taken from patent US20250147006A1, “MULTI-DEPTH SPIRAL MILLI FLUIDIC DEVICE FOR WHOLE MOUNT ZEBRAFISH ANTIBODY STAINING” (THE REGENTS OF THE UNIVERSITY OF CALIFORNIA, priority 2023, published 2025).
Values after ≈ are worked out from the molar mass of the structure shown. Like-named read-outs stand apart in the source and are kept apart here.

Experiments:
zebrafish embryos [1] = settings: 24-well plate
zebrafish embryos [2] = assay: animal or person; settings: Danio rerio, 2 h, read-out: absolute EC50 (50% effective concentration), tail curvature
zebrafish embryos [3] = settings: for EC50: Danio rerio, 2 h

Compound: Cn1c(=O)c2c(ncn2C)n(C)c1=O [caffeine]
- frequency of tail curvature (scoliosis) (zebrafish embryos [1]; after 2-hour caffeine treatment): concentration dependent
- recovery of embryos with tail curvature (zebrafish embryos [1]; after 24 hours culturing in E3 buffer): recovered to normal
- zebrafish embryo survival rate at the end of the experiment (zebrafish embryos [1]; all caffeine concentrations 0.0325-2 mg/mL, 2-hour treatment and 24-hour recovery): over 90%
- EC50 (zebrafish embryos [2]): 690 mg/L (≈ 3.56 mM)
- zebrafish embryo survival rate (zebrafish embryos [3]; CGG, 2-hour treatment and 24-hour recovery, compared with well plate): close to the zebrafish embryo tested in the well plate
- hillslope of dose-response curves, tail curvature (zebrafish embryos [3]; CGG, 3 gradients, 2-hour treatment, compared with well plate): greater than the hillslope of well plate-based dose-response curves
- overall frequency of edema occurrences (zebrafish embryos [3]; CGG, after 24-hour recovery at 2 ml/min, compared with well plate): significantly higher in the CGG than in the well plate
- EC50 (zebrafish embryos [3]; read-out: absolute EC50, tail curvature, CGG, measured concentrations (trypan blue intensity), highest inner wall inlet flowrate (150 μl/min), outer wall 300 μl/min, 2-hour treatment): 987 mg/L (≈ 5.08 mM)
- EC50 (zebrafish embryos [3]; read-out: absolute EC50, tail curvature, CGG, measured concentrations (trypan blue intensity), lowest inner wall inlet flowrate (75 μl/min), outer wall 300 μl/min, 2-hour treatment): 993 mg/L (≈ 5.11 mM)
- EC50 (zebrafish embryos [3]; read-out: absolute EC50, tail curvature, CGG, measured concentrations (trypan blue intensity), middle inner wall inlet flowrate (100 μl/min), outer wall 300 μl/min, 2-hour treatment): 1080 mg/L (≈ 5.56 mM)
- EC50 (zebrafish embryos [3]; read-out: absolute EC50, tail curvature, CGG, simulated concentrations, highest inner wall inlet flowrate (150 μl/min), outer wall 300 μl/min, 2-hour treatment): 1210 mg/L (≈ 6.22 mM)
- EC50 (zebrafish embryos [3]; read-out: absolute EC50, tail curvature, CGG, simulated concentrations, lowest inner wall inlet flowrate (75 μl/min), outer wall 300 μl/min, 2-hour treatment): 1180 mg/L (≈ 6.05 mM)
- EC50 (zebrafish embryos [3]; read-out: absolute EC50, tail curvature, CGG, simulated concentrations, middle inner wall inlet flowrate (100 μl/min), outer wall 300 μl/min, 2-hour treatment): 1220 mg/L (≈ 6.28 mM)
